Data from ChEMBL document CHEMBL1201862, “PubChem BioAssay data set” (2004).
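Each compound was tested at five concentrations against cells in 96-well plates for 48 hours. GI50 marks 50% less growth.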 Active and inactive are the calls of the source. Cut-off read from the data, not from the text of the source: active = GI50 up to about 1.1 µM and inactive = higher.

Columns and labels:
Test in all cases: NCI tumour cell line growth inhibition, 48 h
IGROV-1 = tested on: IGROV-1
NCI-H460 = tested on: NCI-H460
OVCAR-3 = tested on: OVCAR-3
RPMI-8226 = tested on: RPMI-8226
A549 = tested on: A549
NCI-H522 = tested on: NCI-H522
SK-OV-3 = tested on: SK-OV-3
786-0 = tested on: 786-0
LOX IMVI = tested on: LOX IMVI
SK-MEL-28 = tested on: SK-MEL-28
SNB-19 = tested on: SNB-19
SF-268 = tested on: SF-268
SF-539 = tested on: SF-539
RXF 393 = tested on: RXF 393
HOP-62 = tested on: HOP-62
UO-31 = tested on: UO-31
Hs-578T = tested on: Hs-578T
T47D = tested on: T47D
MDA-MB-435 = tested on: MDA-MB-435
DU-145 = tested on: DU-145

Row | Structure (SMILES) | GI50 (IGROV-1) | GI50 (NCI-H460) | GI50 (OVCAR-3) | GI50 (RPMI-8226) | GI50 (A549) | GI50 (NCI-H522) | GI50 (SK-OV-3) | GI50 (786-0) | GI50 (LOX IMVI) | GI50 (SK-MEL-28) | GI50 (SNB-19) | GI50 (SF-268) | GI50 (SF-539) | GI50 (RXF 393) | GI50 (HOP-62) | GI50 (UO-31) | GI50 (Hs-578T) | GI50 (T47D) | GI50 (MDA-MB-435) | GI50 (DU-145)
1 | Cc1ccc(-c2cc(-c3ccccc3)c(C#N)c(=O)[nH]2)cc1 | > 100 µM (inactive) | > 100 µM (inactive) | > 100 µM (inactive) | > 100 µM (inactive) | > 100 µM (inactive) | > 100 µM (inactive) | > 100 µM (inactive) | > 100 µM (inactive) | > 100 µM (inactive) | > 100 µM (inactive) | > 100 µM (inactive) | > 100 µM (inactive) | > 100 µM (inactive) | > 100 µM (inactive) | > 100 µM (inactive) | > 100 µM (inactive) | – | – | – | –
2 | O=C1CCCC2=C1CC1=C(CCCC1=O)N2c1ccc([N+](=O)[O-])cc1 | > 100 µM (inactive) | > 100 µM (inactive) | > 100 µM (inactive) | > 100 µM (inactive) | > 100 µM (inactive) | – | > 100 µM (inactive) | > 100 µM (inactive) | > 100 µM (inactive) | > 100 µM (inactive) | > 100 µM (inactive) | > 100 µM (inactive) | > 100 µM (inactive) | > 100 µM (inactive) | – | > 100 µM (inactive) | > 100 µM (inactive) | – | – | –
3 | CCOC(=O)C1NCCc2c1[nH]c1ccccc21 (centres undefined) | > 10 µM (inactive) | – | > 10 µM (inactive) | > 10 µM (inactive) | > 10 µM (inactive) | > 10 µM (inactive) | > 10 µM (inactive) | > 10 µM (inactive) | – | > 10 µM (inactive) | – | > 10 µM (inactive) | – | > 10 µM (inactive) | > 10 µM (inactive) | – | – | > 10 µM (inactive) | > 10 µM (inactive) | > 10 µM (inactive)
4 | CO/N=C(/C)c1cccc(Nc2nc3ccccc3c3[nH]c4ccccc4c23)c1 | 13.5 µM (inactive) | 2.52 µM (inactive) | 5.7 µM (inactive) | – | 8.75 µM (inactive) | 2.99 µM (inactive) | 17.1 µM (inactive) | 8.55 µM (inactive) | 10.6 µM (inactive) | – | 12.9 µM (inactive) | 12.3 µM (inactive) | 14.4 µM (inactive) | – | 9.66 µM (inactive) | 10.1 µM (inactive) | 13.8 µM (inactive) | 1.84 µM (inactive) | 7.41 µM (inactive) | 12.5 µM (inactive)
5 | C[n+]1cc2cc(O)c(O)cc2c2ccc3cc(O)c(O)cc3c21.c1ccncc1 | 2.02 µM (inactive) | 2.86 µM (inactive) | 2.37 µM (inactive) | 5.4 µM (inactive) | 4.05 µM (inactive) | 0.617 µM (active) | 4.33 µM (inactive) | 2.03 µM (inactive) | 2.61 µM (inactive) | 4.66 µM (inactive) | 1.49 µM (inactive) | 2.18 µM (inactive) | 2.62 µM (inactive) | 2.07 µM (inactive) | 2.12 µM (inactive) | 0.982 µM (active) | – | 5.86 µM (inactive) | 2.46 µM (inactive) | 3.57 µM (inactive)
6 | CN(C)c1ccc(/C=C2\C[C@H]3[C@@H]4CC=C5C[C@@H](O)CC[C@]5(C)[C@H]4CC[C@]3(C)C2=O)cc1 | 18 µM (inactive) | 15.8 µM (inactive) | 24.8 µM (inactive) | 66.8 µM (inactive) | 19.9 µM (inactive) | – | 25.8 µM (inactive) | 16.3 µM (inactive) | 13.2 µM (inactive) | 16.2 µM (inactive) | 17.1 µM (inactive) | 13 µM (inactive) | 9.2 µM (inactive) | 19.7 µM (inactive) | 13.2 µM (inactive) | 4.55 µM (inactive) | – | 20.3 µM (inactive) | – | 44 µM (inactive)
7 | O[C@H]1[C@@H]2OC[C@@H](O)[C@H](OCc3ccccc3)[C@@](COCc3ccccc3)(O2)[C@@H]1OCc1ccccc1 | 13.9 µM (inactive) | 20.3 µM (inactive) | 5.46 µM (inactive) | 10.4 µM (inactive) | 17.1 µM (inactive) | 13.7 µM (inactive) | 21.6 µM (inactive) | 19.9 µM (inactive) | 18.5 µM (inactive) | 14.1 µM (inactive) | 16.4 µM (inactive) | 22.2 µM (inactive) | 15.5 µM (inactive) | 20.2 µM (inactive) | 17.2 µM (inactive) | 16.7 µM (inactive) | 14.7 µM (inactive) | – | 17.3 µM (inactive) | 18.5 µM (inactive)
8 | CNC1=Nc2ccccc2C(=S)N2CSC[C@@H]12 | – | > 100 µM (inactive) | > 100 µM (inactive) | > 100 µM (inactive) | > 100 µM (inactive) | > 100 µM (inactive) | > 100 µM (inactive) | > 100 µM (inactive) | – | > 100 µM (inactive) | > 100 µM (inactive) | > 100 µM (inactive) | > 100 µM (inactive) | > 100 µM (inactive) | > 100 µM (inactive) | > 100 µM (inactive) | – | > 100 µM (inactive) | > 100 µM (inactive) | > 100 µM (inactive)
9 | COC1OC(CBr)C(OC(=O)c2ccccc2)C(OS(=O)(=O)c2ccc(C)cc2)C1Br (centres undefined) | > 10 µM (inactive) | > 100 µM (inactive) | > 100 µM (inactive) | > 100 µM (inactive) | > 100 µM (inactive) | > 100 µM (inactive) | > 10 µM (inactive) | > 100 µM (inactive) | > 100 µM (inactive) | > 100 µM (inactive) | > 100 µM (inactive) | > 100 µM (inactive) | > 100 µM (inactive) | > 100 µM (inactive) | > 100 µM (inactive) | > 100 µM (inactive) | – | – | – | –
10 | CC(=O)Oc1cc(-c2oc3cc(OC(C)=O)c(C4OC(CO)C(O)C(O)C4O)c(OC(C)=O)c3c(=O)c2O)c(OC(C)=O)cc1O (centres undefined) | > 100 µM (inactive) | > 100 µM (inactive) | > 100 µM (inactive) | 56.4 µM (inactive) | > 100 µM (inactive) | 72.6 µM (inactive) | > 100 µM (inactive) | > 100 µM (inactive) | > 100 µM (inactive) | – | – | – | – | > 100 µM (inactive) | > 100 µM (inactive) | > 100 µM (inactive) | > 100 µM (inactive) | – | > 100 µM (inactive) | > 100 µM (inactive)
11 | COC(=O)/C=C\S/C(=C(/c1ccccc1)n1ccc(C(=O)OC)n1)c1ccccc1 | 58.6 µM (inactive) | 66.4 µM (inactive) | – | 38.9 µM (inactive) | 36.6 µM (inactive) | 24.5 µM (inactive) | 19.9 µM (inactive) | 12.4 µM (inactive) | > 100 µM (inactive) | 28.6 µM (inactive) | 12.7 µM (inactive) | 20.5 µM (inactive) | 40.2 µM (inactive) | 13.1 µM (inactive) | 15.8 µM (inactive) | 13.7 µM (inactive) | 26.6 µM (inactive) | 24.5 µM (inactive) | 45.4 µM (inactive) | –
12 | CCCCCCC(C)CCCCCCCCCCC(=O)O (centres undefined) | > 100 µM (inactive) | > 100 µM (inactive) | > 100 µM (inactive) | > 100 µM (inactive) | > 100 µM (inactive) | > 100 µM (inactive) | > 100 µM (inactive) | > 100 µM (inactive) | > 100 µM (inactive) | > 100 µM (inactive) | > 100 µM (inactive) | > 100 µM (inactive) | > 100 µM (inactive) | > 100 µM (inactive) | > 100 µM (inactive) | > 100 µM (inactive) | – | – | – | –
13 | CCCCC(/C=N/NC(=N)N)CC.Cc1cc(O)c(C(C)C)cc1S(=O)(=O)O | 92.9 µM (inactive) | 46.6 µM (inactive) | 37.2 µM (inactive) | 38.8 µM (inactive) | 65.8 µM (inactive) | > 100 µM (inactive) | 59.8 µM (inactive) | > 100 µM (inactive) | 57.1 µM (inactive) | 40.6 µM (inactive) | 60 µM (inactive) | > 100 µM (inactive) | 87.5 µM (inactive) | 24.9 µM (inactive) | 39.7 µM (inactive) | 59.8 µM (inactive) | – | – | – | –
14 | CCCCCCCCCCCCCCCCc1c(O)nc(NN)nc1C(=O)OC | > 50 µM (inactive) | > 50 µM (inactive) | > 50 µM (inactive) | > 50 µM (inactive) | > 50 µM (inactive) | > 50 µM (inactive) | > 50 µM (inactive) | > 50 µM (inactive) | > 50 µM (inactive) | > 50 µM (inactive) | > 50 µM (inactive) | > 50 µM (inactive) | > 50 µM (inactive) | > 50 µM (inactive) | > 50 µM (inactive) | > 50 µM (inactive) | – | – | – | –
15 | O=C(O)C[C@H]1CCCCC12CCOC2=O (some centres undefined) | > 100 µM (inactive) | > 100 µM (inactive) | > 100 µM (inactive) | > 100 µM (inactive) | > 100 µM (inactive) | > 100 µM (inactive) | > 100 µM (inactive) | > 100 µM (inactive) | > 100 µM (inactive) | > 100 µM (inactive) | > 100 µM (inactive) | > 100 µM (inactive) | > 100 µM (inactive) | > 100 µM (inactive) | > 100 µM (inactive) | > 100 µM (inactive) | – | – | – | –
16 | CC12CCC(=O)[C@@]1(C)CCCC2=O (some centres undefined) | > 100 µM (inactive) | > 100 µM (inactive) | – | – | > 100 µM (inactive) | > 100 µM (inactive) | > 100 µM (inactive) | > 100 µM (inactive) | > 100 µM (inactive) | > 100 µM (inactive) | > 100 µM (inactive) | > 100 µM (inactive) | > 100 µM (inactive) | 42.2 µM (inactive) | > 100 µM (inactive) | > 100 µM (inactive) | > 100 µM (inactive) | > 100 µM (inactive) | – | > 100 µM (inactive)
